Assay results published in article PMC13401508 (Pharmacological research, 2026).
“Also recorded” adds a separate entry of the source.

Legend:
[1] = tested on: HS5, RWPE-1, C4–2B, PC3-ML, ARCaP-M and RM1-BM cells; experiment: Colony formation (clonal) assay; format: cell-based, human and murine; settings: 50 μM, six repeated doses over a two-week period, tumor and non-tumor cells
Procedure: 200 cells/well were seeded in triplicate in 6-well plates. […] The colonies were fixed with ice-cold Methanol and stained with 0.5% crystal violet and counted.
Fig. 1. Primary characterization of IVMT-Rx-4. A) Chemical structure (upper panel) and synthesis scheme (lower panel). […] All proteins were extracted, and Western blotting was performed immediately after heating. Quantifications were obtained in the absence (control) or presence of IVMT-Rx-4 and values are presented as percentage of RT (room temperature) normalized for the experimental groups (control, IVMT-Rx-4). SOD (Superoxide dismutase) was used as an endogenous control. […] Colonies were stained with crystal violet and counted (n = 3 ± SD; ns: non-significant). […] Invaded cells were stained with crystal violet. Top panel: representative photograph of invaded cells under different experimental settings. Bottom panel: graphical representation of number of invaded cells/field for different cell lines (n = 3 ± SD; * p < 0.05).

[2] = Stability in liver microsomes with NADPH and UDPGA; format: in vitro ADME; settings: liver microsomes; all species (human, monkey, dog, rat, mouse), NADPH and UDPGA added; read-out: t½ in liver microsomes
Procedure: Test samples were incubated at 37 °C, and Verapamil was used as a positive control. Samples were drawn from the incubation solution at different timepoints, centrifuged, then diluted with ultra-pure H20 and analyzed via LC-MS/MS. The natural logarithm of the remaining parent drug at each timepoint was plotted against incubation time, and the following equation was used to calculate the in vitro half-life:
in vitro t1/2 = -(0.693/k), where k is the rate constant.

[3] = target: T1, CYP3A4 (Homo sapiens, UniProt P08684); experiment: Drug-substrate based CYP inhibition, 3A4; format: in vitro ADME; settings: human liver microsomes
T1 construct: in the presence of human liver microsomes; from tissue; host or cells: human liver microsomes
Procedure: (§1) IVMT-Rx-4 was incubated with selective probe substrates of each CYP isoform in the presence of human liver microsomes. The formation of metabolite was quantified using LC-MS/MS methods. The extent of inhibition was assessed by calculating the remaining enzyme activity and percent inhibition based on analyte-to-internal standard area ratios, using the following equations:
(§2) Area Ratio = Peak AreaAnalyte / Peak AreaInternal Standard
(§3) Remaining Activity (%) = Area Ratiotest compound / Area Ratiovehicle ×100
(§4) Inhibition (%) = 100 ̶ Remaining Activity (%)

[4] = tested on: CYP 1A2, 2A6, 2B6, 2C8, 2C9, 2C19, 2D6, 2E1, 3A4_M, 3A4_T (the others); experiment: Drug-substrate based CYP inhibition, other isoforms of the panel; format: in vitro ADME; settings: human liver microsomes; isoforms of the panel not given
Procedure: as §1, §2, §3, §4

[5] = tested on: CYP1A2, 2A6, 2B6, 2C8, 2C9, 2C19, 2D6 (the other isoforms of the panel); experiment: as above; format: in vitro ADME; settings: human liver microsomes; isoforms of the panel not given; read-out: Drug-substrate based CYP Inhibition, others
Procedure: as §1, §2, §3, §4

[6] = target: T1, CYP3A4; experiment: Time dependent CYP inhibition (TDI); format: in vitro ADME; settings: human liver microsomes, with or without NADPH
Procedure: Then, the specific CYP3A4 substrate was added, and aliquots were collected at various time points. Samples were then diluted with ultra-pure water and analyzed by LC-MS/MS. Area ratio and remaining Activity (%) were calculated as above and IC50 values was calculated using Excel XLfit 5.3.1.3.

[7] = target: T2, PXR (Homo sapiens, UniProt O75469); experiment: PXR assay using DPX2 cells; format: cell-based
T2 construct: expressed in transfected cells; host or cells: DPX2 cells
T2 sequence (O75469 1-434): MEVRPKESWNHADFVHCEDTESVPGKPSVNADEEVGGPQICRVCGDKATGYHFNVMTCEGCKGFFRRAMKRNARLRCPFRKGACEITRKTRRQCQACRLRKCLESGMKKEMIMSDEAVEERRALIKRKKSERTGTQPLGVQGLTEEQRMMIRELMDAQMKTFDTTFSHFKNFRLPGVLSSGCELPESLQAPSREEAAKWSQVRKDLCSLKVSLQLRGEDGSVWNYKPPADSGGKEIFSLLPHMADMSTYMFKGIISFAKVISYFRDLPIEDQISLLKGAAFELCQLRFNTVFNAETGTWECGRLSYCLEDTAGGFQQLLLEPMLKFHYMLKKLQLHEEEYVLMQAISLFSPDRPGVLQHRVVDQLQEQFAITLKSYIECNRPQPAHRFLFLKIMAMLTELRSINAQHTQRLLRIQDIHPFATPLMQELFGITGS
Procedure: DPX2 cells were initially cultured in T-75 flasks and maintained at 37°C in a humidified incubator with 5% CO2 and 95% relative humidity. Cells were allowed to reach 70-80% confluence prior to subculture. Next, cells were transferred to a culture plate and incubated for an additional 24 hours to allow for attachment and recovery prior to treatment. […] Cell viability and luciferase activity were measured using the CellTiter-Fluor™ Cell Viability Assay and One-GloTM Luciferase Assay System, respectively. Luciferase activity was normalized to viable number and fold activation of PXR was calculated using the following equation: […]

[8] = Dynamic vapor sorption (DVS); format: physicochemical; settings: for moisture adsorption: 25°C
Procedure: Hygroscopicity and moisture absorption of IVMT-Rx-4 were assessed using dynamic vapor sorption on a DVS instrument (SMS, DVS Intrinsic). Samples 20.4 mg in size were first treated at 25°C for several hours while under nitrogen flow. They were then treated with water vapor at various partial pressures with relative humidities which ranged from 0 to 90% at 25°C.

[9] = tested on: PDGFRα; experiment: Western blot, PDGF-AA activated HS5 cells: PDGFRα; format: cell-based, human; settings: PDGF-AA 10 ng/ML, 25 μM, 24 hrs
[10] = Visible toxicity in animals; settings: in vivo

T1 sequence (P08684 whole entry): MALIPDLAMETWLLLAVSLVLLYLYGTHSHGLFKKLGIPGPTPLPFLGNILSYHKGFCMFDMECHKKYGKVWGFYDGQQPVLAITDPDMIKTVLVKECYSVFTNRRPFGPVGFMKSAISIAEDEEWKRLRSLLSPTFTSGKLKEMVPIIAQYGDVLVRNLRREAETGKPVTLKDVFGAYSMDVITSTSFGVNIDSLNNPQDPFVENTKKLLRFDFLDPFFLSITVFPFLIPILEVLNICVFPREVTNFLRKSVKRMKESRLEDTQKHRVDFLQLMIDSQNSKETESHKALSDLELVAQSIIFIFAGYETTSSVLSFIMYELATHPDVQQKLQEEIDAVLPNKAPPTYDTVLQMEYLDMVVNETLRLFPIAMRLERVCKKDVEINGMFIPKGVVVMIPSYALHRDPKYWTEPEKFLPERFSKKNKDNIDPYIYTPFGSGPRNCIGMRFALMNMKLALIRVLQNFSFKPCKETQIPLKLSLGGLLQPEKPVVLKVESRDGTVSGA

Compound: Cc1cc(NC(=O)CCc2nnc(-c3ccccc3)o2)c(C)cc1N [IVMT-Rx-4]
- cell proliferation (colony formation) [1]: did not inhibit cell proliferation
- half-life [2]: > 3.5 h
- IC50 [3]: ~10 µM
- Drug-substrate based CYP Inhibition, others [4]: no inhibitory effects
- IC50 [5]: > 10 µM
- Time-dependent inhibition (TDI), CYP3A4 [6]: no time-dependent inhibition; also recorded: No TDI
- PXR assay [7]: No induction
- moisture adsorption ([8]; 80% RH): 0.98%
- moisture adsorption ([8]; 90% RH): 1.06%
- hygroscopicity ([8]; DVS): slightly hygroscopic
- PDGFRα activation (phosphorylated PDGFRα) [9]: downregulation of phosphorylated PDGFRα
- visible toxicity in animals [10]: without provoking any visible toxicity
